Row | Structure (SMILES) | melting point [°C]
1 | OP(O)C(NC(c1ccccc1)c1ccccc1)c1ccc2ccccc2c1 (configuration not stated) | 205 to 207
2 | COC(=O)c1cc(C(C)=O)c(OCc2ccccc2)cc1OCc1ccccc1 | 114 to 115
3 | CCN(C(=O)c1ccccc1)C(=NC(=O)c1ccccc1)NCc1ccc(S(N)(=O)=O)cc1 | 70 to 80
4 | CC(C)(C)OC(=O)NCCNC(=O)Nc1ccccc1C(=O)NC1CCN(C(c2ccccc2)c2ccccc2)CC1 | 226 to 228
5 | Fc1ccc2[nH]c3c(c2c1)Cc1ccccc1-3 | 225 to 227
6 | O=C(Cc1ccc(F)cc1)c1c(O)c2cccnc2n(-c2cccc(OC(F)(F)F)c2)c1=O | 137 to 138
7 | CC(C)NC(=O)CCC(O)c1ccccc1 (configuration not stated) | 131 to 135
8 | COc1ccc(-c2cc3ncnc(Nc4ccc5[nH]ccc5c4)c3s2)cc1 | 150 to 180
9 | Cc1nc2c(c(-c3ccccc3)nn2C)c(-c2ccc(F)cc2)c1CO | 231 to 236
10 | O=Cc1ccc(OCCn2ncc3ccccc3c2=O)cc1 | 104 to 106
11 | CC1(C)OC(=O)Nc2ccc(-c3ccc(C#N)[nH]3)cc21 | 241 to 242
12 | CCN(CC)Cc1nc2cc(OC)c(OC)cc2c(-c2ccc(OC)c(OC)c2)c1Cl | 146 to 148
13 | Cc1cc(C(=O)C(=O)c2ccc(OC(F)F)cc2)ccc1F | 77 to 78
14 | CCOc1ccc(C(=O)C2CC2)cc1 | 67 to 70
15 | CCOC(=O)C(=O)CC(=O)N1CCOCC1 | 60
16 | CC(S)=C(C#N)C(=O)Nc1ccc(C(F)(F)F)cc1 | 183 to 184
17 | O=C(O)CS(=O)(=O)CCCCCNS(=O)(=O)c1ccc(Cl)cc1 | 193 to 194
18 | Cc1nc2n(c(=O)c1CCN1CCC(C(=NO)c3ccc(F)cc3F)CC1)CCCC2 | 180 to 183
19 | O=C(c1ccc2c(c1)CCO2)N1Cc2cccnc2Nc2ccccc21 | 188
20 | O=C(NC(Cc1ccc(OCc2ccccc2)cc1)C(=O)O)c1nc2ccc(-c3ccc(Cl)cc3)cn2c1Cl (configuration not stated) | 242 to 244
21 | O=C(Nc1ccc(Cl)cn1)N[C@@H]1C[C@@H]1c1cccc([N+](=O)[O-])c1 (racemic) | 201 to 202
22 | N#Cc1cccc(NC(=O)c2ccc(-n3nc(C(F)(F)F)cc3C(F)(F)F)cc2)c1 | 195 to 196
23 | O=[N+]([O-])c1ccc(Cn2c(-c3ccc4c(c3)OCO4)nc3ccccc32)cc1 | 172 to 174
24 | CCC(CC)c1ccc(Cl)c2nc3n(c12)CCCCN3c1ccc(S(C)=O)cc1C (configuration not stated) | 189 to 190

Row | Structure (SMILES) | melting point [°C]
25 | C=C(CC1(C)C(=O)CCC1=O)C1=CCCc2cc(OC)ccc21 | 81 to 82
26 | CCCN(CCC)C(Cc1cccc(OC)c1N(C(C)=O)C(C)=O)(C(=O)OCC)C(=O)OCC | 72 to 75
27 | COc1cc(-c2nc(N)sc2SCC2CCCC2)c(OC)cc1C | 88 to 89
28 | N#CC1(N)CCSCC1 | 51 to 52
29 | COc1ccc(-n2c3ccccc3c3cc(C=C(C#N)c4cc(C(F)(F)F)cc(C(F)(F)F)c4)ccc32)cc1 | 198 to 200
30 | O=c1[nH]c2cc(Cl)ccc2c(=O)n1CCCN1CC=C(c2ccc(Cl)cc2)CC1 | 225 to 227
31 | COc1ccc(Oc2ccc(C(=O)N(C3CCCC3)C3CCCC3)cc2)cc1OC | 180
32 | CCCN1C(=O)c2cnc(-c3ccccc3)nc2N(C(=O)CN2CCN(C)CC2)c2ccccc21 | 148 to 150
33 | COP1(=S)OCc2cc(C)cnc2O1 (configuration not stated) | 74 to 75
34 | CC12C=CC(=O)C=C1C(N)CC1C2CCC2(C)C(=O)CCC12 (configuration not stated) | 186 to 191
35 | CS(=O)(=O)NCCc1ccc2c(c1)C(=O)c1ccccc1CO2 | 104 to 106
36 | CCOC(=O)CCn1ccn([C@H]2CCc3c(F)cc(F)cc3C2)c1=S | 105 to 107
37 | CCOC(=O)c1cc(CC)sc1Nc1ccc(F)cc1N | 82 to 84
38 | O=C(COc1cc(-c2ccccc2)nc2cccc(Cl)c12)N1CCOCC1 | 168
39 | Clc1ncnc2c1ncn2CCCN1CCC(COc2ccccc2)CC1 | 95 to 96
40 | O=C(O)c1cc(Br)cc([N+](=O)[O-])c1NCc1ccccc1Cl | 159 to 161
41 | CCN(CC)C(=O)n1ccc(Sc2ccc(Cl)cc2Cl)n1 | 96 to 97
42 | C#Cc1ccc(C(O)C2C(c3ccccc3)CC(=O)N2C)s1 (configuration not stated) | 187
43 | C=C(C)CN1C(=O)CC(=O)N(c2ccccc2)c2cc(Cl)ccc21 | 149 to 151
44 | CCN(CC)c1ccc(C(=O)c2ccccc2)c(O)c1 | 46 to 48
45 | O=c1oc2ccccc2c(O)c1Sc1ccccc1 | 186 to 189
46 | CCc1nc(C2CC2)c(C(=O)O)n1Cc1ccc2oc(-c3ccccc3C(=O)NS(=O)(=O)c3ccccc3)c(Br)c2c1 | 176 to 178
47 | CC(C)(C)C(=O)c1ccc(C(=O)N[C@@H](Cc2ccccc2)C(N)=O)cc1 | 120 to 123
48 | CCCCCC1CCC(C2CCC(CC(=O)CC)CC2)CC1 (configuration not stated) | 107

Row | Structure (SMILES) | melting point [°C]
49 | COC(=O)c1cn2c(C)c(C)sc2n1 | 180 to 181
50 | COc1ccc(-c2ccc3nnn(Cc4ccc5ncccc5c4)c3n2)cc1OC | 149 to 152
51 | CC(=O)OCC(C)(C)c1ccc(S(N)(=O)=O)cc1 | 156 to 158
52 | CCOC(=O)C1CN(c2ccc(OC)cc2)CC1=O (configuration not stated) | 58 to 60
53 | Cn1c(=O)c(-c2ccccc2Cl)cc2cnc(NC3C4CN(Cc5ccccc5)CC43)nc21 (configuration not stated) | 92 to 94
54 | CO/C=C(/C(=O)OC)c1cccnc1Oc1cccc(O)c1 | 163 to 165
55 | O=C(NCCO)c1cccc(-c2cccc3nc(C(O)c4cccc(C(F)(F)F)c4)cn23)c1 (configuration not stated) | 169
56 | N#Cc1cnc2cc(I)ccc2c1Cl | 165 to 167
57 | CC(C)C1(c2ccccc2O)C(=O)N(C)c2ccccc21 (configuration not stated) | 172 to 174
58 | CC(C)(C)c1csc(-c2cc3cc(C=O)ccc3o2)n1 | 83 to 84
59 | CCCCCCCCCCCCCCCCCC(=O)c1cc(C(=O)O)ccc1O | 170
60 | O=c1nc(NCCCn2ccnc2)n2c3c1cnn3C(c1cccc(F)c1)=CC2 | 256 to 258
61 | CCOC(=O)c1ccc(C(=O)c2c(N)sc3c2CCN(C(=O)OCc2ccccc2)C3)cc1 | 195 to 196
62 | CCCc1cc(C)c(OCCO)c(C(Nc2ccc(C(=N)N)cc2)C(=O)O)c1 (racemic) | 230
63 | CNC(=S)C1(c2cnccn2)CCCS1 (configuration not stated) | 127
64 | CNC(=S)C1(c2ccc(Cl)nc2)CCCCC1=O (configuration not stated) | 172 to 173
65 | CC(C)(C)OC(=O)C(C)(C)ON=C(C(=O)O)c1cccs1 | 201 to 202
66 | CCCCCCCCCCCCCCCCCCOc1ccc(C(=O)O)o1 | 117 to 118
67 | O=C1N(Cc2ccc(C(F)(F)F)o2)c2ccccc2C1(O)c1nc2c(cc1O)OCO2 (configuration not stated) | > 250
68 | Cc1nccn1-c1nc(-c2ccc(Cl)cc2)c(CCC2=NCCO2)o1 | 119 to 120
69 | O=C(O)C1=Cc2cc(-c3ccccc3)ccc2CC1 | 208 to 209
70 | CN1CCN(c2ccc3cc(Cl)ccc3n2)CC1 | 141 to 142
71 | Cc1ccc(CO[C@H]2CO[C@@H](c3ccccc3)OC2)cc1C | 79 to 80
72 | COCCCc1nc(C(F)F)ccc1C(=O)C1C(=O)C2CCC(C2)C1=O (configuration not stated) | 45 to 46

Source: a melting point compilation (Tetko et al.; mined from patent text by program, amines drawn as free bases though some values may be those of a salt)
